Reference: article doi:10.1101/2025.11.19.689330v1 (bioRxiv, 2025)

Tests used:
Type in all cases: cell-based, human
[1] = tested on: Golgi of HeLa cells; test: FRET co-assembly of 2 with quencher 7, Golgi fluorescence over 24 minutes; conditions: 2 (10 nM) with 7 (5, 10, 20 nM) or UBQ2-COOH (10, 20 nM)
[2] = tested on: Golgi of HeLa cells; test: Time-lapse CLSM of Golgi fluorescence build-up; conditions: over 24 minutes
[3] = tested on: Golgi of HeLa cells; test: FRAP assay at the Golgi; conditions: 500 nM, after 30-minute treatment
[4] = tested on: Golgi of HeLa cells; test: CLSM Golgi labeling at ultralow concentrations; conditions: 4 hours
[5] = tested on: Golgi of HeLa cells; test: BFA-induced Golgi disassembly in cells prelabeled with 2; conditions: HeLa cells prelabeled with 2 (10 nM, 30 min), BFA 10 μM

COc1cc(N=Nc2ccc([N+](=O)[O-])cc2)c(OC)cc1N=Nc1ccc(N(C)CCCC(=O)O)cc1 [UBQ2]
effect on Golgi fluorescence of 2 on co-treatment [1]: did not diminish Golgi fluorescence

CCCCCCCCCCCCC/C=C/[C@@H](O)[C@H](CO)NC(=O)CCCCC1=[N+]2C(=Cc3c(C)cc(C)n3[B-]2(F)F)C=C1 [BODIPY-C5-Ceramide]
Golgi fluorescence in time-lapse imaging at 10 nM [2]: no significant Golgi fluorescence
immobile fraction (IMf) at the Golgi [3]: 0.52
Golgi fluorescence at 10 nM ([4]; 10 nM): very dim fluorescence at the Golgi
Golgi localization at picomolar concentrations ([4]; picomolar concentrations (500 pM)): no detectable Golgi localization

C[C@H]1CCC/C=C/[C@@H]2C[C@H](O)C[C@H]2[C@H](O)/C=C/C(=O)O1 [BFA, brefeldin A]
time at which the Golgi begins to lose its defined morphology [5]: 5.5 minutes
time at which the Golgi collapses into the ER [5]: 6.5 min
